Assay results: PubChem BioAssay (NCI)
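Values below derive from 48-hour exposures of cells grown in 96-well plates, with endpoints linearly interpolated between the two concentrations bracketing the appropriate inhibition level. TGI denotes the concentration required for complete inhibition of growth.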

Tests used:
Test in all cases: inhibition of tumour cell growth, NCI panel, 48 h
[1] = system: SF-268 CNS
[2] = system: SK-MEL-28 melanoma
[3] = system: RXF 393 renal
[4] = system: M14 melanoma
[5] = system: MDA-MB-435
[6] = system: OVCAR-3 ovarian
[7] = system: TK-10 renal
[8] = system: U251 CNS
[9] = system: OVCAR-8 ovarian
[10] = system: SF-295 CNS
[11] = system: 786-0 renal
[12] = system: K-562 leukemia
[13] = system: COLO 205 colon
[14] = system: NCI-H460 lung
[15] = system: T-47D breast
[16] = system: PC-3 prostate
[17] = system: A498 renal
[18] = system: SW-620 colon
[19] = system: HCT-116 colon
[20] = system: MDA-N
[21] = system: HOP-92 NSCLC
[22] = system: SK-MEL-5 melanoma
[23] = system: MOLT-4 leukemia
[24] = system: MALME-3M melanoma
[25] = system: CAKI-1 renal
[26] = system: OVCAR-5 ovarian
[27] = system: NCI/ADR-RES ovarian
[28] = system: SK-MEL-2 melanoma
[29] = system: HCC-2998 colon
[30] = system: SNB-19 CNS
[31] = system: UO-31 renal
[32] = system: BT-549 breast
[33] = system: LOX IMVI melanoma
[34] = system: CCRF-CEM leukemia
[35] = system: UACC-62 melanoma
[36] = system: OVCAR-4 ovarian
[37] = system: MDA-MB-231 breast
[38] = system: SK-OV-3 ovarian
[39] = system: NCI-H226 lung
[40] = system: SR leukemia
[41] = system: SN12C renal
[42] = system: RPMI-8226 leukemia
[43] = system: HS 578T breast
[44] = system: DU-145 prostate
[45] = system: EKVX NSCLC
[46] = system: NCI-H522 lung
[47] = system: KM12 colon
[48] = system: HT29 colon
[49] = system: SNB-75 CNS
[50] = system: IGROV1 ovarian
[51] = system: NCI-H23 lung
[52] = system: HCT-15 colon
[53] = system: HOP-62 NSCLC
[54] = system: A549 NSCLC
[55] = system: UACC-257 melanoma
[56] = system: SF-539 CNS
[57] = system: ACHN renal
[58] = system: HL-60(TB) leukemia
[59] = system: MCF7 breast

## CN(C)c1nc2n(CCO)c(-c3ccccc3)c(-c3ccccc3)nc-2c(=O)n1
[1]
  TGI: > 100 µM
[2]
  TGI: > 100 µM
[3]
  TGI: > 100 µM
[4]
  TGI: > 100 µM
[5]
  TGI: > 100 µM
[6]
  TGI: > 100 µM
[7]
  TGI: > 100 µM
[8]
  TGI: > 100 µM
[9]
  TGI: > 100 µM
[10]
  TGI: > 100 µM
[11]
  TGI: > 100 µM
[12]
  TGI: > 100 µM
[13]
  TGI: > 100 µM
[14]
  TGI: > 100 µM
[15]
  TGI: > 100 µM
[16]
  TGI: > 100 µM
[17]
  TGI: > 100 µM
[18]
  TGI: > 100 µM
[19]
  TGI: > 100 µM
[20]
  TGI: > 100 µM
[21]
  TGI: > 100 µM
[22]
  TGI: > 100 µM
[23]
  TGI: > 100 µM
[24]
  TGI: > 100 µM
[25]
  TGI: > 100 µM
[26]
  TGI: > 100 µM
[27]
  TGI: > 100 µM
[28]
  TGI: > 100 µM
[29]
  TGI: > 100 µM
[30]
  TGI: > 100 µM
[31]
  TGI: > 100 µM
[32]
  TGI: > 100 µM
[33]
  TGI: > 100 µM
[34]
  TGI: > 100 µM
[35]
  TGI: > 100 µM
[36]
  TGI: > 100 µM
[37]
  TGI: > 100 µM
[38]
  TGI: > 100 µM
[39]
  TGI: > 100 µM
[40]
  TGI: > 100 µM
[41]
  TGI: > 100 µM
[42]
  TGI: > 100 µM
[43]
  TGI: > 100 µM
[44]
  TGI: > 100 µM
[45]
  TGI: > 100 µM
[46]
  TGI: > 100 µM
[47]
  TGI: > 100 µM
[48]
  TGI: > 100 µM
[49]
  TGI: > 100 µM
[50]
  TGI: > 100 µM
[51]
  TGI: > 100 µM
[52]
  TGI: > 100 µM
[53]
  TGI: > 100 µM
[54]
  TGI: > 100 µM
[55]
  TGI: > 100 µM
[56]
  TGI: > 100 µM
[57]
  TGI: > 100 µM

## COc1cc(N/N=C/C#N)cc(OC)c1OC
[1]
  TGI: > 10 µM
[2]
  TGI: > 10 µM
[3]
  TGI: > 10 µM
[4]
  TGI: > 10 µM
[5]
  TGI: > 10 µM
[6]
  TGI: > 10 µM
[7]
  TGI: > 10 µM
[8]
  TGI: > 10 µM
[9]
  TGI: > 10 µM
[10]
  TGI: > 10 µM
[58]
  TGI: 5.64 µM
[12]
  TGI: > 10 µM
[13]
  TGI: > 10 µM
[14]
  TGI: > 10 µM
[59]
  TGI: > 10 µM
[15]
  TGI: > 10 µM
[16]
  TGI: > 10 µM
[17]
  TGI: > 10 µM
[18]
  TGI: > 10 µM
[19]
  TGI: > 10 µM
[20]
  TGI: > 10 µM
[22]
  TGI: > 10 µM
[23]
  TGI: > 10 µM
[24]
  TGI: > 10 µM
[25]
  TGI: > 10 µM
[26]
  TGI: > 10 µM
[27]
  TGI: > 10 µM
[28]
  TGI: > 10 µM
[29]
  TGI: > 10 µM
[30]
  TGI: > 10 µM
[31]
  TGI: > 10 µM
[33]
  TGI: 3.24 µM
[34]
  TGI: > 10 µM
[35]
  TGI: > 10 µM
[36]
  TGI: > 10 µM
[37]
  TGI: > 10 µM
[38]
  TGI: > 10 µM
[39]
  TGI: > 10 µM
[40]
  TGI: > 10 µM
[41]
  TGI: > 10 µM
[42]
  TGI: 5.68 µM
[43]
  TGI: > 10 µM
[44]
  TGI: > 10 µM
[45]
  TGI: > 10 µM
[46]
  TGI: 3.68 µM
[47]
  TGI: > 10 µM
[48]
  TGI: > 10 µM
[49]
  TGI: > 10 µM
[50]
  TGI: > 10 µM
[51]
  TGI: > 10 µM
[52]
  TGI: > 10 µM
[53]
  TGI: > 10 µM
[54]
  TGI: > 10 µM
[56]
  TGI: > 10 µM
[57]
  TGI: > 10 µM

## O=c1oc2ccccc2c(O)c1C1c2c(c3ccccc3oc2=O)Oc2c1c(=O)oc1ccccc21
[1]
  TGI: 94 µM
[2]
  TGI: 97.8 µM
[5]
  TGI: 60 µM
[6]
  TGI: > 100 µM
[7]
  TGI: > 100 µM
[8]
  TGI: > 100 µM
[9]
  TGI: > 100 µM
[11]
  TGI: > 100 µM
[12]
  TGI: > 100 µM
[13]
  TGI: > 100 µM
[14]
  TGI: 31.7 µM
[15]
  TGI: > 100 µM
[16]
  TGI: > 100 µM
[17]
  TGI: > 100 µM
[18]
  TGI: > 100 µM
[19]
  TGI: > 100 µM
[20]
  TGI: 37.3 µM
[21]
  TGI: > 100 µM
[22]
  TGI: 52.1 µM
[23]
  TGI: > 100 µM
[24]
  TGI: > 100 µM
[25]
  TGI: 69.3 µM
[27]
  TGI: > 100 µM
[28]
  TGI: > 100 µM
[29]
  TGI: 41.1 µM
[30]
  TGI: > 100 µM
[31]
  TGI: 35.6 µM
[32]
  TGI: 67.5 µM
[33]
  TGI: > 100 µM
[34]
  TGI: > 100 µM
[35]
  TGI: 47.5 µM
[36]
  TGI: > 100 µM
[37]
  TGI: 71.2 µM
[39]
  TGI: 64 µM
[41]
  TGI: 73.3 µM
[42]
  TGI: 87.9 µM
[43]
  TGI: > 100 µM
[44]
  TGI: > 100 µM
[45]
  TGI: > 100 µM
[46]
  TGI: > 100 µM
[47]
  TGI: 57.9 µM
[48]
  TGI: 98 µM
[49]
  TGI: > 100 µM
[50]
  TGI: > 100 µM
[51]
  TGI: 89.2 µM
[52]
  TGI: > 100 µM
[53]
  TGI: > 100 µM
[55]
  TGI: > 100 µM
[57]
  TGI: 62.9 µM
